Values of other authors as cited in patent US20240117436A1, “METHODS OF TREATING LIPEDEMA INCLUDING AKR1C2 AS A THERAPEUTIC TARGET” (MAGI EUREGIO SCS, priority 2021, published 2024).

Target: AKR enzymes
Conditions: mid-nanomolar value; read-out: affinity of cofactor in binding AKR enzymes

Compound | Kd [nM]
NADP(H) [NADP(H) (NPD)] | 100

Target: T1, AKR1C1 (Homo sapiens, UniProt Q04828)
T1 sequence (Q04828 1-323): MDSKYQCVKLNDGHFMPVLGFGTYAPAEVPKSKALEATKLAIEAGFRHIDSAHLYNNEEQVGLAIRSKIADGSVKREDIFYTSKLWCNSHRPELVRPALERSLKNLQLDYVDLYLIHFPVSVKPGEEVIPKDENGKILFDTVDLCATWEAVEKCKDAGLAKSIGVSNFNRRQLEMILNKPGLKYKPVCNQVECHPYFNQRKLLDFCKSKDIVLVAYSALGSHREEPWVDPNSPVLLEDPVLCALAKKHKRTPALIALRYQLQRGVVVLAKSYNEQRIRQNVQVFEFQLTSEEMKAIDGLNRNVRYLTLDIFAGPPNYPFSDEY
Conditions: not given

Compound | Enzyme activity (inhibition/activation)
CN1C(=O)CN=C(c2ccccc2F)c2cc([N+](=O)[O-])ccc21 [Flunitrazepam] | inhibition
O=C1CN=C(c2ccccn2)c2cc(Br)ccc2N1 [Bromazepam] | inhibition
O=C1CN=C(c2ccccc2)c2cc([N+](=O)[O-])ccc2N1 [Nitrazepam] | inhibition
O=C1CN2CCOC2(c2ccccc2Cl)c2cc(Cl)ccc2N1 (centres unmarked) [Cloxazolam] | inhibition
CN1C(=O)CN=C(c2ccccc2)c2cc(Cl)ccc21 [Diazepam] | inhibition

Same assay, conditions: AKR1C1, known from the literature

Compound | Enzyme activity (inhibition/activation)
CCc1cccc2c3c([nH]c12)C(CC)(CC(=O)O)OCC3 (centres unmarked) [Etodolac] | inhibition
COc1c(O)cc(O)c2c(=O)cc(-c3ccccc3)oc12 [Wagonin] | inhibition
O=c1cc(-c2ccccc2)oc2cc(O)ccc12 [7-Hydroxyflavone] | inhibition
O=c1cc(-c2ccc(O)c(O)c2)oc2cc(O)cc(O)c12 [Luteolin] | inhibition
CC/C(=C(/CC)c1ccc(O)cc1)c1ccc(O)cc1 [Diethylstilbestrol] | inhibition
O=c1c(O)c(-c2ccccc2)oc2cc(O)ccc12 [3,7-Dihydroxyflavone] | inhibition
O=C1C[C@@H](c2ccc(O[C@@H]3O[C@H](CO)[C@@H](O)[C@H](O)[C@H]3O)cc2)Oc2cc(O)ccc21 [Liquiritin] | inhibition
CC/C=C\CC1C(=O)CCC1CC(=O)OC (centres unmarked) [Methyl Jasmonate] | inhibition
O=c1c(O)c(-c2ccc(O)c(O)c2)oc2cc(O)cc(O)c12 [Quercetin] | inhibition
CN1CCN=C(c2ccccc2)c2cc(Cl)ccc21 [Medazepam] | inhibition
O=c1cc(-c2ccccc2)oc2cccc(O)c12 [5-Hydroxyflavone] | inhibition
CC(=O)Nc1ccc(O)cc1 [Paracetamol] | inhibition
O=C(O)Cc1ccccc1Nc1c(Cl)cccc1Cl [Diclofenac] | inhibition
C[C@H]1CCCC(=O)CCC/C=C/c2cc(O)cc(O)c2C(=O)O1 [Zearalenone] | inhibition
CC1(C)[C@@H](O)CC[C@]2(C)[C@H]3C(=O)C=C4[C@@H]5C[C@@](C)(C(=O)O)CC[C@]5(C)CC[C@@]4(C)[C@]3(C)CC[C@@H]12 [Glycyrrhetinic Acid] | inhibition
O=c1c(-c2ccc(O)cc2)coc2cc(O)cc(O)c12 [Genistein] | inhibition
O=c1cc(-c2ccc(O)cc2)oc2cc(O)cc(O)c12 [Apigenin] | inhibition
CC(C)Cc1ccc(C(C)C(=O)O)cc1 (centres unmarked) [Ibuprofen] | inhibition
CC(C)C1=CC2=CC[C@@H]3[C@](C)(CCC[C@@]3(C)C(=O)O)[C@H]2CC1 [Abietic Acid] | inhibition
CC/C(=C(\c1ccccc1)c1ccc(OCCN(C)C)cc1)c1ccccc1 [Tamoxifen] | inhibition
O=c1c(O)c(-c2ccccc2)oc2ccccc12 [3-Hydroxyflavone] | inhibition
COc1cccc2oc(-c3ccccc3)cc(=O)c12 [5-Methoxyflavone] | inhibition
CC1CN2CC(=O)Nc3ccc(Cl)cc3C2(c2ccccc2)O1 (centres unmarked) [Oxazolam] | inhibition
O=c1ccc2ccccc2o1 [Coumarin] | inhibition
CC1=C(CC(=O)O)c2cc(F)ccc2/C1=C\c1ccc([S+](C)[O-])cc1 (centres unmarked) [Sulindac] | inhibition
CC(=O)[C@H]1CC[C@H]2[C@@H]3C=CC4=CC(=O)CC[C@@]4(C)[C@@H]3CC[C@]12C [Dydrogesterone] | inhibition
O=c1oc2cc(O)ccc2c2oc3cc(O)ccc3c12 [Coumestrol] | inhibition

Compound | Enzyme activity (inhibition/activation)
O=C1CC(c2ccccc2)Oc2ccccc21 (centres unmarked) [Flavanone] | inhibition
O=C1CCCC1 [Cyclopentanone] | inhibition
O=C1C[C@@H](c2ccc(O)cc2)Oc2cc(O)cc(O)c21 [Naringenin] | inhibition
CC(=O)O[C@]1(C(C)=O)CC[C@H]2[C@@H]3C[C@H](C)C4=CC(=O)CC[C@]4(C)[C@H]3CC[C@@]21C [Medroxyprogesterone Acetate] | inhibition
Clc1ccc2c(c1)C(c1ccccc1)=NCc1nncn1-2 [Estazolam] | inhibition
CC(C(=O)O)c1cccc(C(=O)c2ccccc2)c1 (centres unmarked) [Ketoprofen] | inhibition
C=C(CC)C(=O)c1ccc(OCC(=O)O)c(Cl)c1Cl [Ethacrynic Acid] | activation
C[C@]12CC[C@H]3C(=CCc4cc(O)ccc43)[C@@H]1CCC2=O [Equilin] | inhibition
C[C@H](O)[C@H]1CC[C@H]2[C@@H]3C=CC4=CC(=O)CC[C@@]4(C)[C@@H]3CC[C@]12C [20α-Hydroxydydrogesterone] | inhibition
O=C(O)c1cc(I)cc(I)c1O [3,5-Diiodosalicylic Acid] | inhibition
COc1ccc2cc([C@H](C)C(=O)O)ccc2c1 [Naproxen] | inhibition
O=c1cc(-c2ccccc2)oc2ccccc12 [Flavone] | inhibition
COc1ccc(-c2coc3cc(O)cc(O)c3c2=O)cc1 [Biochanin A] | inhibition
CC(=O)Oc1ccccc1C(=O)O [Acetylsalicylic Acid] | inhibition
O=c1c(-c2ccc(O)cc2)coc2cc(O)ccc12 [Daidzein] | inhibition
Oc1ccc(C=Cc2cc(O)cc(O)c2)cc1 [Resveratrol] | inhibition
C#C[C@]1(O)CC[C@H]2[C@@H]3CCC4=CC(=O)CC[C@@H]4[C@H]3CC[C@@]21C [Norethindrone] | inhibition
OO [Hydrogen peroxide] | activation
COc1ccc2c(c1)c(CC(=O)O)c(C)n2C(=O)c1ccc(Cl)cc1 [Indomethacin] | inhibition
CC(C)(C)c1cc(O)ccc1O [T-Butylhydroquinone] | activation
O=c1c(O)c(-c2ccc(O)cc2)oc2cc(O)cc(O)c12 [Kaempferol] | inhibition
Cc1cc(CC(=O)O)n(C)c1C(=O)c1ccc(Cl)cc1 [Zomepirac] | inhibition
COC1=C(OC)C(=O)c2ccccc2C1=O [2,3-Dimethoxynaphthalene-1,4-Dione, 2,3-dimethoxynaphthalene-1,4-dione] | activation
Cc1ccc(Cl)c(Nc2ccccc2C(=O)O)c1Cl [Meclofenamic Acid] | inhibition
O=C(O)c1cccc(Oc2ccccc2)c1 [3-Phenoxybenzoic Acid] | inhibition
O=c1cc(-c2ccccc2)oc2cc(O)cc(O)c12 [Chrysin, 5,7-Dihydroxyflavone] | inhibition

Same assay, conditions: literature statements in the text

Compound | kind of AKR1C1 inhibition
O=C1C[C@@H](c2ccc(O[C@@H]3O[C@H](CO)[C@@H](O)[C@H](O)[C@H]3O)cc2)Oc2cc(O)ccc21 [Liquiritin] | selective and potent AKR1C1 inhibitor
CN1CCN=C(c2ccccc2)c2cc(Cl)ccc21 [Medazepam] | non-competitive inhibitors

System: PGE2 and PGF2α levels
Conditions: literature

Compound | Activity (prostaglandin levels)
Sennosides | increase PGE2 formation
